Series [1] is described as follows: Behaviour of the complex in solution in vitro. Format: physicochemical. The following applies: unless a low concentration of surfactant was included.
Series [2] is described as follows: PET/CT imaging. Format: in vivo, female NIH Swiss mice. The following applies: normal mice; for Route of excretion: PET imaging; for PET: radioactivity at 4 h after injection / PET: radioactivity at 24 h after injection: static imaging. How it is done:
PET/CT Imaging. PET imaging with 89Zr-DFO or 89Zr-DOTA was performed on healthy female NIH Swiss mice (6-8 wk old, n=6) using a small animal PET/CT scanner (eXplore VISTA model, GE Healthcare, Waukesha, WI). Before imaging, each mouse was anesthetized by inhalation of isoflurane mixed with oxygen gas (3% isoflurane for induction and 1-2% for maintenance) and a tail vein catheter was placed on the tail. The mouse was then positioned in the imaging cradle and a CT scan was performed for the subsequent attenuation correction and anatomical colocalization. After the CT scan, 89Zr-DFO or 89Zr-DOTA (11.1-12.5 MBq (300-338 µCi) in 100 µL saline/ mouse) was administered through the tail vein catheter, and a dynamic PET scan was simultaneously initiated and acquired for 1 hour to record the initial distribution and pharmacokinetics. Mice were re-anesthetized at 2, 4 and 24 hours, and a static PET scan was acquired for 20 min as late-phase scans. PET images were reconstructed using 2D ordered subset expectation maximization (2D-OSEM) algorithms with random, scatter, and attenuation corrections and then coregistered with the CT image. The PET system was calibrated using a Zr-89 phantom with known activity. Standard uptake value (SUV = [(nCi/mL) x (animal wt. (g))/ injected dose (nCi)]) and the measure of %ID/g was then calculated voxel-wise with the calibration factor and normalization to the injected dose and animal body weight. For dynamic scans, data were binned into 19 time frames with the following schemes: 6x10s, 2x30s, 3x60s, 5x5min, 3x10min. The tissue uptake curves were generated from the dynamic scans with regions of interest (ROIs) manually placed in heart, liver, kidney, bone, and muscle. Biodistribution data at 2, 4 and 24 hours were obtained from the PET images, with regions of interest placed in corresponding organs or tissues.

Consider `NC(=O)CN1CCN(CC(N)=O)CCN(CC(N)=O)CCN(CC(N)=O)CC1.[89Zr+4]` [89Zr-DOTAM], for which the “Behaviour in solution without surfactant” value in series [1] was “aggregated and precipitated out of solution”.

Take `O=C1CN2CCN3CCN4CCN(CC2)CC(=O)[O][89Zr]([O]1)([O]C(=O)C3)[O]C(=O)C4` [89Zr-DOTA]: in series [2], the Route of excretion result is “excreted renally”, the “PET: radioactivity at 4 h after injection” value is “nearly all the radioactivity was excreted” and the “PET: radioactivity at 24 h after injection” value is listed as “barely above background levels”.

`CC(=O)N1CCCCCNC(=O)CCC(=O)N2CCCCCNC(=O)CCC(=O)N(CCCCCN)[O][89Zr+]([O]1)[O]2` [89Zr-DFO, reference compound]: in series [2], the Route of excretion entry is “excreted renally”, the “PET: radioactivity at 4 h after injection” value was “more radioactivity accumulated in the kidneys” and the “PET: radioactivity at 24 h after injection” value was “still visible”.

For the origin of these results see article PMC5363373, “Zirconium tetraazamacrocycle complexes display extraordinary stability and provide a new strategy for zirconium-89-based radiopharmaceutical development” (Chemical Science, 2016).
